In assay [1] the target is T1, human full-length glucocorticoid receptor (Homo sapiens, UniProt P04150).
T1 construct: a cell lysate containing recombinantly expressed human full-length glucocorticoid receptor; purchased PanVera Co., Madison, Wis; P2816
T1 sequence (P04150 1-777): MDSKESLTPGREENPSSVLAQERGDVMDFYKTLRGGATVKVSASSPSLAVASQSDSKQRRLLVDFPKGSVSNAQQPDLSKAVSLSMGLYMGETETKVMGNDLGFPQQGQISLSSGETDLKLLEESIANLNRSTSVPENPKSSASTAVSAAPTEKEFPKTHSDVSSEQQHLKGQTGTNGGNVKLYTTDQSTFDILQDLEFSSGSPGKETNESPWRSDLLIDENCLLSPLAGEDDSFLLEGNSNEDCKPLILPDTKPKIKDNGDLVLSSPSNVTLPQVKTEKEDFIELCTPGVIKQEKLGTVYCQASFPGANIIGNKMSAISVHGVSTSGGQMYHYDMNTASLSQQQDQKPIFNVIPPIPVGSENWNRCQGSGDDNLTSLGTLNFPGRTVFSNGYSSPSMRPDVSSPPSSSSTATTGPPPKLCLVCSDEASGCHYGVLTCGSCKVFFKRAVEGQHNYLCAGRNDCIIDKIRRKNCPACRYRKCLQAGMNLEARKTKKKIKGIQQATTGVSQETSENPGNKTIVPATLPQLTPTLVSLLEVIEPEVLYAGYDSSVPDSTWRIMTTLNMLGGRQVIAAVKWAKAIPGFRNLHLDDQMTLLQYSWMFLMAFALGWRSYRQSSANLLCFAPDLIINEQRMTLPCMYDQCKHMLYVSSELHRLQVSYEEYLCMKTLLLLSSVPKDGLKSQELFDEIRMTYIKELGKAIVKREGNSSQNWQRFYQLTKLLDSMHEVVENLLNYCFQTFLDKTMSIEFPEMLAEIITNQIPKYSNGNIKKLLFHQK
The assay can be described thus: Glucocorticoid Receptor Binding Assay (II), fluorescence polarization competitor kit (Fluormone GS1). The conditions noted are these: cell lysate with recombinant human full-length GR, 1 nM Fluormone GS1, FP. An outline of the steps: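 Recombinant full-length human GR in cell lysate competed against 1 nM fluorescent glucocorticoid tracer (Fluormone GS1) with or without test compound. Fluorescence polarization read after 1 h at room temperature.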
(Polarisation of emitted light reports the rotation of a fluorescent probe.)

Assay [2] has as its system AP-1 induced transcriptional activity. The assay can be described thus: Cellular Transrepressional Assay (AP-1 luciferase reporter in A549 cells, PMA-activated). It counts as cell-based. The conditions noted are these: A549 cells with 7x AP-1 luciferase reporter, 10 ng/ml PMA, read-out: AP-1 (EC50, nM) (Cellular Transrepression Assay). The procedure, abridged: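 Stable A549 AP-1 (7× sites) luciferase reporter line stimulated with 10 ng/ml PMA plus test molecules (0.1 nM to 40 μM) for 7 h. Luminescence read after 10 min with luciferase reagent; EC50 from % decrease of PMA-induced signal.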

Where two headings read alike, the source gives them in different places.

Broadly, the Ki is a dissociation constant, usually derived from enzyme kinetics or from competition with a known ligand. One may read the EC50 as the concentration giving half of the maximal effect. Consider `CC(C)(C(=O)N[C@@H]1CCC[C@H]1O)[C@@H](c1ccccc1)c1ccc2c(cnn2-c2ccc(F)cc2)c1` [Example 135, (S)-3-(1-(4-fluorophenyl)-1H-indazol-5-yl)-N-(2-hydroxycyclopentyl)-2,2-dimethyl-3-phenylpropanamide], for which the inhibition constant (Ki) in assay [1] was found to be 0.6 nM. Besides, in assay [2] (Homo sapiens, A549, 7 h), the half-maximal effective concentration (EC50) came out at 40 nM.

`C=CCC(c1ccc2c(cnn2-c2ccc(F)cc2)c1)C(C)(C)C(=O)Nc1nncs1` (centres unmarked) [Example 45, 3-(1-(4-fluorophenyl)-1H-indazol-5-yl)-2,2-dimethyl-N-(1,3,4-thiadazol-2-yl)hex-5-enamide]: the Ki in assay [1] was found to be 2.6 nM. Besides, the concentration giving a half-maximal response (EC50) in assay [2] (Homo sapiens, A549, 7 h) stood at 52 nM.

Take `CC(C)(C(=O)Nc1nccs1)C(c1ccc(F)cc1)c1ccc2c(cnn2-c2ccc(F)cc2)c1` (centres unmarked) [Example 44, 3-(4-fluorophenyl)-3-(1-(4-fluorophenyl)-1H-indazol-5-yl)-2,2-dimethyl-N-(thiazol-2-yl)propanamide]: in assay [1], the Ki came out at 2.4 nM. Besides, in assay [2] (Homo sapiens, A549, 7 h), the EC50 is 14 nM.

For `CCCC(C(=O)Nc1nncs1)C(c1ccccc1)c1ccc2c(cnn2-c2ccc(F)cc2)c1` (centres unmarked) [Example 143, 2-((1-(4-fluorophenyl)-1H-indazol-5-yl)(phenyl)methyl)-N-(1,3,4-thiadiazol-2-yl)pentanamide], the Ki in assay [1] is 1.7 nM. In assay [2] (Homo sapiens, A549, 7 h), the concentration giving a half-maximal response (EC50) is 2 nM.

Turning to `CC(C)(C(=O)Nc1nncs1)C(c1ccc2c(cnn2-c2ccc(F)cc2)c1)C1CC1` (centres unmarked) [Example 47, 3-cyclopropyl-3-(1-(4-fluorophenyl)-1H-indazol-5-yl)-2,2-dimethyl-N-(1,3,4-thiadiazol-2-yl)propanamide], the Ki in assay [1] was found to be 1.7 nM. Moreover, in assay [2] (Homo sapiens, A549, 7 h), the concentration giving a half-maximal response (EC50) amounted to 523 nM.

In the case of `CC(C)(C(=O)NC1CCCC1O)C(Cc1ccccc1)c1ccc2c(cnn2-c2ccc(F)cc2)c1` (single isomer, unassigned) [Example 124-isomerA], the Ki in assay [1] is 7.5 nM. Further, the EC50 in assay [2] (7 hours) is greater than 10000 nM.

In the case of `CC(C)c1cc2c(cnn2-c2ccc(F)cc2)cc1CC(C)(C)C(=O)Nc1nncs1` [Example 104], the inhibition constant Ki in assay [1] stood at 1.6 nM. The concentration for a half-maximal effect (EC50) in assay [2] (Homo sapiens, A549, 7 h) was greater than 10000 nM.

As for `CC(C)C(C(=O)Nc1nncs1)C(c1ccccc1)c1ccc2c(cnn2-c2ccc(F)cc2)c1` (centres unmarked) [Example 144, 2-((1-(4-fluorophenyl)-1H-indazol-5-yl)(phenyl)methyl)-3-methyl-N-(1,3,4-thiadiazol-2-yl)butanamide], the Ki in assay [1] came out at 2 nM. Further, the concentration giving a half-maximal response (EC50) in assay [2] (Homo sapiens, A549, 7 h) was 2 nM.

With `CC(C)CC1(c2ccc3c(cnn3-c3ccc(F)cc3)c2)CC1C(=O)Nc1nccs1` (mixture of isomers) [Example 100, Cis and trans-2-(1-(4-fluorophenyl)-1H-indazol-5-yl)-2-isobutyl-N-(thiazol-2-yl)cyclopropanecarboxamide], the inhibitory constant (Ki) in assay [1] is 102 nM. The EC50 in assay [2] (Homo sapiens, A549, 7 h) was found to be 290 nM.

On to `COc1cc(F)ccc1-n1ncc2cc([C@H](c3ccccc3)C(C)(C)C(=O)Nc3nncs3)ccc21` [Example 96, (3S)-3-(1-(4-fluoro-2-methoxyphenyl)-1H-indazol-5-yl)-2,2-dimethyl-3-phenyl-N-(1,3,4-thiadiazol-2-yl)propanamide], for which, in assay [1], the inhibitory constant (Ki) turned out to be 3.1 nM. Moreover, in assay [2] (Homo sapiens, A549, 7 h), the EC50 was 23 nM.

On to `COC(=O)c1ccc(-n2ncc3cc(C(c4ccccc4)C(C)(C)C(=O)Nc4nncs4)ccc32)cc1` (centres unmarked) [Example 88, methyl 4-(5-(3-(1,3,4-thiadiazol-2-ylamino)-2,2-dimethyl-3-oxo-1-phenylpropyl)-1H-indazol-1-yl)benzoate], for which the inhibition constant (Ki) in assay [1] was 26 nM. Also, the 50% effective concentration (EC50) in assay [2] (Homo sapiens, A549, 7 h) is greater than 10000 nM.

On to `CC(CO)(C(=O)Nc1nncs1)C(c1ccccc1)c1ccc2c(cnn2-c2ccc(F)cc2)c1` (centres unmarked) [Example 155, 3-(1-(4-Fluorophenyl)-1H-indazol-5-yl)-2-(hydroxymethyl)-2-methyl-3-phenyl-N-(1,3,4-thiadiazol-2-yl)propanamide], for which the Ki in assay [1] was 4.3 nM. Further, in assay [2] (Homo sapiens, A549, 7 h), the concentration for a half-maximal effect (EC50) was 1770 nM.

For the molecule `COC(=O)c1ccc(C(c2ccc3c(cnn3-c3ccc(F)cc3)c2)C(C)C(=O)Nc2nncs2)cc1` (centres unmarked) [Example 153, Methyl 4-(3-(1,3,4-thiadiazol-2-ylamino)-1-(1-(4-fluorophenyl)-1H-indazol-5-yl)-2-methyl-3-oxopropyl)benzoate], the Ki in assay [1] is 4.3 nM. In assay [2] (Homo sapiens, A549, 7 h), the EC50 amounted to 27 nM.
